Experimental data reported in PubChem BioAssay (NCI).
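Results reflect a 48-hour exposure of cells in 96-well plates to compound at five concentrations. GI50: concentration for 50% inhibition of growth. TGI marks complete inhibition of growth.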

Legend:
Experiment in all cases: inhibition of tumour cell growth, NCI panel, 48 h
ACHN renal = test system: ACHN renal
COLO 205 colon = test system: COLO 205 colon
NCI-H460 lung = test system: NCI-H460 lung
OVCAR-4 ovarian = test system: OVCAR-4 ovarian
SF-539 CNS = test system: SF-539 CNS
SK-MEL-28 melanoma = test system: SK-MEL-28 melanoma
EKVX NSCLC = test system: EKVX NSCLC
HS 578T breast = test system: HS 578T breast
PC-3 prostate = test system: PC-3 prostate
MDA-MB-435 = test system: MDA-MB-435

Compound | TGI (ACHN renal) | TGI (COLO 205 colon) | TGI (NCI-H460 lung) | TGI (OVCAR-4 ovarian) | TGI (SF-539 CNS) | TGI (SK-MEL-28 melanoma) | TGI (EKVX NSCLC) | GI50 (ACHN renal) | GI50 (COLO 205 colon) | GI50 (EKVX NSCLC) | GI50 (HS 578T breast) | TGI (HS 578T breast) | GI50 (NCI-H460 lung) | GI50 (OVCAR-4 ovarian) | GI50 (PC-3 prostate) | TGI (PC-3 prostate) | GI50 (SF-539 CNS) | GI50 (MDA-MB-435) | TGI (MDA-MB-435) | GI50 (SK-MEL-28 melanoma)
CCOC(=O)C1=C(O)CSC1=Nc1ccccc1 | > 100 µM | > 100 µM | > 100 µM | > 100 µM | > 100 µM | > 100 µM | – | – | – | – | – | – | – | – | – | – | – | – | – | –
O=C1N(c2ccccc2)C(=O)C2(SC=NN2Cc2ccccc2)N1c1ccccc1 (centres undefined) | > 100 µM | > 100 µM | > 100 µM | > 100 µM | > 100 µM | > 100 µM | > 100 µM | – | – | – | – | – | – | – | – | – | – | – | – | –
C[C@]12CCc3nonc3C1CC[C@@H]1C2CC[C@]2(C)NC(=O)CCC12 (some centres undefined) | > 100 µM | > 100 µM | > 100 µM | > 100 µM | > 100 µM | > 100 µM | > 100 µM | – | – | – | – | – | – | – | – | – | – | – | – | –
CC(=O)O[C@H](C[C@H](C(C)C)N(C)C(=O)[C@@H](NC(=O)[C@H]1CCCCN1C)C(C)C)c1nc(C(=O)N[C@@H](Cc2ccccc2)C[C@H](C)C(=O)O)c(C(C)C)s1 | > 18.5 µM | < 0.033 µM | 5.05 µM | > 33.3 µM | 0.00391 µM | – | > 33.3 µM | 0.00458 µM | < 0.00333 µM | 0.00336 µM | < 0.00333 µM | 3.08 µM | < 0.00333 µM | 0.00673 µM | < 0.00333 µM | > 33.3 µM | < 0.00333 µM | – | – | –
O=C1c2ccccc2C(=O)c2c(NCCNCCO)ccc(O)c21 | 11.2 µM | 10.3 µM | 6.85 µM | 6.53 µM | 12.1 µM | 11.4 µM | 14 µM | – | – | – | – | – | – | – | – | – | – | – | – | –
CCOC(=O)C1=C(C)NC2SC(=O)/C(=C\c3ccccc3O)N2C1c1ccccc1 (centres undefined) | 81.4 µM | 72.8 µM | 79.4 µM | – | > 100 µM | 56.8 µM | > 100 µM | 28.5 µM | 23.2 µM | 34.1 µM | 17.4 µM | 50.2 µM | 24.3 µM | – | 26.5 µM | 74.1 µM | 35.5 µM | 19.6 µM | 62.5 µM | 20.5 µM
COc1ccc(C(=O)C(C(=O)C(=O)Nc2ccc(Cl)c(Cl)c2)c2ccc(OC)cc2)cc1 (centres undefined) | > 100 µM | – | > 100 µM | > 100 µM | > 100 µM | > 100 µM | > 100 µM | – | – | – | – | – | – | – | – | – | – | – | – | –
CC(C)(C)c1[nH]cnc1/C=c1\[nH]c(=O)/c(=C/c2ccccc2)[nH]c1=O | 35.7 µM | 0.101 µM | 17.7 µM | 55.3 µM | 0.0321 µM | 28.3 µM | 35.5 µM | < 0.01 µM | 0.013 µM | 0.0482 µM | < 0.01 µM | > 71.8 µM | < 0.01 µM | 0.151 µM | < 0.01 µM | 36.1 µM | < 0.01 µM | – | – | 10.5 µM
Cc1c(C(=O)C/C(=N/NC(=O)C[n+]2ccccc2)C(=O)Nc2ccccc2)[n+](=O)c2ccccc2n1O | > 100 µM | > 100 µM | > 100 µM | > 100 µM | > 100 µM | > 100 µM | > 100 µM | – | – | – | – | – | – | – | – | – | – | – | – | –
O=c1cccccc1NCCCCCCNc1cccccc1=O | > 100 µM | > 100 µM | > 100 µM | > 100 µM | – | > 100 µM | > 100 µM | – | – | – | – | – | – | – | – | – | – | – | – | –
CC(=O)O[C@]1(C)OC(=O)[C@@H](C)N1[N+](=O)[O-] | > 100 µM | > 100 µM | > 100 µM | > 100 µM | > 100 µM | > 100 µM | > 100 µM | – | – | – | – | – | – | – | – | – | – | – | – | –
CN[C@@H](C)[C@@H](N)c1ccccc1 | > 100 µM | > 100 µM | > 100 µM | – | > 100 µM | > 100 µM | > 100 µM | – | – | – | – | – | – | – | – | – | – | – | – | –
Cn1cc(C2=C(c3cccnc3)C(=O)NC2=O)c2ccccc21 | > 25 µM | > 25 µM | > 25 µM | > 25 µM | > 25 µM | > 25 µM | – | 14.1 µM | > 18.3 µM | – | 8.14 µM | > 25 µM | > 23.1 µM | > 22.2 µM | 17.1 µM | > 25 µM | 11.4 µM | > 25 µM | > 25 µM | > 25 µM
COc1ccc(C2=NN(C(=O)c3cc(OC)c(OC)c(OC)c3)C(c3ccc(Cl)cc3)C2)cc1OC (centres undefined) | 41.3 µM | > 100 µM | > 100 µM | 49.6 µM | > 82.8 µM | > 55.9 µM | > 100 µM | 2.32 µM | 2.44 µM | 5.86 µM | 3.59 µM | > 42.4 µM | 2.11 µM | 5.22 µM | 1.07 µM | > 100 µM | 2.06 µM | – | – | 1.65 µM
CC/C(=C(/CC)c1ccc([O-])cc1)c1ccc([O-])cc1.CC/C(=C(\CC)c1ccc([O-])cc1)c1ccc([O-])cc1.O=C([CH-]C(=O)c1ccccc1)c1ccccc1.O=C([CH-]C(=O)c1ccccc1)c1ccccc1.O=C([CH-]C(=O)c1ccccc1)c1ccccc1.O=C([CH-]C(=O)c1ccccc1)c1ccccc1.[Ti+4].[Ti+4] | > 100 µM | > 100 µM | > 100 µM | > 100 µM | 40.8 µM | > 100 µM | > 100 µM | 35.2 µM | 37.9 µM | 45.5 µM | – | – | 25.2 µM | 42.9 µM | – | – | 20 µM | – | – | 39.5 µM
COc1c(NC(C)=O)cc(C)cc1NC(C)=O | > 100 µM | > 100 µM | > 100 µM | > 100 µM | > 100 µM | > 100 µM | > 100 µM | – | – | – | – | – | – | – | – | – | – | – | – | –
COC(=O)C1=C(C(=O)OC)C23CC1C1C(C(=O)OC)=C(C(=O)OC)C12C1C=CC3C2C(=O)OC(=O)C21 (centres undefined) | > 100 µM | 64.9 µM | > 100 µM | > 100 µM | > 100 µM | > 100 µM | > 100 µM | – | – | – | – | – | – | – | – | – | – | – | – | –
CO/N=C(\C)c1cccc(Nc2cc(-c3ccccc3)nc3c(O)cccc23)c1 | 28.1 µM | 46.1 µM | – | > 100 µM | 39.9 µM | 43.5 µM | 59.6 µM | 6.04 µM | 18.3 µM | 17.4 µM | 5.31 µM | 38.8 µM | – | 61.3 µM | 4.13 µM | 24.3 µM | 10.8 µM | 1.97 µM | 5.56 µM | 12.4 µM
C=CC(C=O)C1(O)CCOC(=O)/C1=C\N (centres undefined) | > 100 µM | > 100 µM | > 100 µM | – | – | > 100 µM | > 100 µM | > 100 µM | > 100 µM | > 100 µM | 7.57 µM | > 100 µM | > 100 µM | – | > 100 µM | > 100 µM | – | > 100 µM | > 100 µM | > 100 µM
